The results in this text go back to ChEMBL document CHEMBL5532637, “Antimicrobial activity of natural and semi-synthetic carbazole alkaloids” (Eur J Med Chem, 2023).

≈ marks a conversion by molar mass, not a printed value.

The test system of experiment [1] is Escherichia coli. Nature of the experiment: Antibacterial activity against Escherichia coli JW5503 harboring tolC mutant assessed as inhibition of bacterial growth incubated for 16 to 20 hrs by two-fold serial dilution assay. The conditions noted are these: time 16-20 hrs. Format: functional.
Experiment [2] relates to Staphylococcus aureus. As to the kind of experiment: Antibacterial activity against Staphylococcus aureus assessed as inhibition of bacterial growth. It counts as functional, organism-based.
Experiment [3] relates to Staphylococcus aureus. Nature of the experiment: Antibacterial activity against Staphylococcus aureus assessed as inhibition of bacterial growth by broth microdilution method. Format: functional.
The subject of experiment [4] is Klebsiella pneumoniae. Nature of the experiment: Antibacterial activity against Klebsiella pneumoniae assessed as inhibition of bacterial growth by broth microdilution method. It counts as functional. For orientation: Broth dilution looks for growth in wells or tubes with falling amounts of substance.
For experiment [5], the system named is Escherichia coli. Nature of the experiment: Antibacterial activity against Escherichia coli assessed as inhibition of bacterial growth by broth microdilution method. Format: functional.
In experiment [6] the test system is Pseudomonas aeruginosa. As to the kind of experiment: Antibacterial activity against Pseudomonas aeruginosa assessed as inhibition of bacterial growth by broth microdilution method. Format: functional.
Experiment [7] has as its system Staphylococcus aureus. As to the kind of experiment: Antibacterial activity against Staphylococcus aureus TISTR 1466 assessed as inhibition of bacterial growth by two-fold serial dilution method. Format: functional.
The test system of experiment [8] is Staphylococcus aureus. Nature of the experiment: Antibacterial activity against methicillin-resistant Staphylococcus aureus SK1 assessed as inhibition of bacterial growth by two-fold serial dilution method. Format: functional.
The subject of experiment [9] is Escherichia coli. As to the kind of experiment: Antibacterial activity against Escherichia coli TISTR 780 assessed as inhibition of bacterial growth by two-fold serial dilution method. Format: functional.
Another experiment has as its system Salmonella typhimurium. As to the kind of experiment: Antibacterial activity against Salmonella typhimurium TISTR 292 assessed as inhibition of bacterial growth by two-fold serial dilution method. It counts as functional, Salmonella enterica subsp. enterica serovar Typhimurium. The note with it: Salmonella enterica.
Experiment [10] deals with Staphylococcus aureus. Nature of the experiment: Antimicrobial activity against Staphylococcus aureus ATCC 29213 assessed as inhibition of microbial growth incubated for 24 hrs by two-fold serial dilution assay. It counts as functional.
In experiment [11] the test system is Bacillus subtilis. As to the kind of experiment: Antimicrobial activity against Bacillus subtilis ATCC 6633 assessed as inhibition of microbial growth incubated for 24 hrs by two-fold serial dilution assay. It counts as functional.
For a further experiment, the system named is Priestia megaterium. Nature of the experiment: Antimicrobial activity against Bacillus megaterium ATCC 9885 assessed as inhibition of microbial growth incubated for 24 hrs by two-fold serial dilution assay. It counts as functional.
The next experiment has as its system Micrococcus luteus. As to the kind of experiment: Antimicrobial activity against Sarcina lutea assessed as inhibition of microbial growth incubated for 24 hrs by two-fold serial dilution assay. Format: functional.
Experiment [12] has as its system Klebsiella pneumoniae. Nature of the experiment: Antimicrobial activity against Klebsiella pneumoniae ATCC 13883 assessed as inhibition of microbial growth incubated for 24 hrs by two-fold serial dilution assay. Format: functional.
In experiment [13] the test system is Pseudomonas aeruginosa. Nature of the experiment: Antimicrobial activity against Pseudomonas aeruginosa ATCC 27953 assessed as inhibition of microbial growth incubated for 24 hrs by two-fold serial dilution assay. It counts as functional.
For experiment [14], the system named is Escherichia coli. As to the kind of experiment: Antimicrobial activity against Escherichia coli ATCC 25922 assessed as inhibition of microbial growth incubated for 24 hrs by two-fold serial dilution assay. Format: functional.
Experiment [15] has as its system Candida albicans. As to the kind of experiment: Antimicrobial activity against Candida albicans NRRL Y-477 assessed as inhibition of microbial growth incubated for 48 hrs by two-fold serial dilution assay. Format: functional.
The subject of experiment [16] is Candida albicans. As to the kind of experiment: Antifungal activity against Candida albicans assessed as inhibition of fungal growth incubated for overnight by MTT based serial dilution method. It counts as functional.
A further experiment has as its system Candida tropicalis. Nature of the experiment: Antifungal activity against Candida tropicalis assessed as inhibition of fungal growth incubated for overnight by MTT based serial dilution method. It counts as functional.
The subject of another experiment is Aspergillus fumigatus. As to the kind of experiment: Antifungal activity against Aspergillus fumigatus assessed as inhibition of fungal growth incubated for overnight by MTT based serial dilution method. Format: functional.
Another experiment deals with Pasteurella multocida. As to the kind of experiment: Antibacterial activity against Pasteurella multocida assessed as inhibition of bacterial growth by agar well diffusion method. Format: functional.
Experiment [17] deals with Schizosaccharomyces pombe. Nature of the experiment: Antifungal activity against Schizosaccharomyces pombe DSM 70572 assessed as inhibition of fungal growth incubated for 24 hrs by serial dilution method. It counts as functional.
The subject of a further experiment is Mucor hiemalis. Nature of the experiment: Antifungal activity against Mucor hiemalis DSM 2656 assessed as inhibition of fungal growth incubated for 24 hrs by serial dilution method. Format: functional.
The test system of a further experiment is Rhodotorula glutinis. Nature of the experiment: Antifungal activity against Rhodotorula glutinis DSM 10134 assessed as inhibition of fungal growth incubated for 24 hrs by serial dilution method. Format: functional.
In experiment [18] the test system is Bacillus subtilis. As to the kind of experiment: Antibacterial activity against Bacillus subtilis DSM 10 assessed as inhibition of bacterial growth incubated for 24 hrs by serial dilution method. Format: functional.
The test system of experiment [19] is Mycolicibacterium smegmatis. As to the kind of experiment: Antibacterial activity against Mycobacterium smegmatis DSM ATCC 700084 assessed as inhibition of bacterial growth incubated for 24 hrs by serial dilution method. It counts as functional.
For experiment [20], the system named is Staphylococcus aureus. As to the kind of experiment: Antibacterial activity against Staphylococcus aureus DSM 346 assessed as inhibition of bacterial growth incubated for 24 hrs by serial dilution method. Format: functional.
The test system of experiment [21] is Staphylococcus epidermidis. As to the kind of experiment: Antibacterial activity against Staphylococcus epidermidis assessed as zone of inhibition at 25 ug/ml. Format: functional. The note with it: read-out: IZ.
The subject of the next experiment is Proteus vulgaris. Nature of the experiment: Antibacterial activity against Proteus vulgaris assessed as zone of inhibition at 25 ug/ml. Format: functional. The conditions noted are these: read-out: IZ.
Experiment [22] concerns Escherichia coli. Nature of the experiment: Antibacterial activity against Escherichia coli assessed as zone of inhibition at 25 ug/ml. It counts as functional. The conditions noted are these: read-out: IZ.
The subject of the next experiment is Vibrio cholerae. As to the kind of experiment: Antibacterial activity against Vibrio cholerae assessed as inhibition of bacterial growth incubated for 24 hrs by broth microdilution method. Format: functional.
Another experiment has as its system Shigella flexneri. Nature of the experiment: Antibacterial activity against Shigella flexneri assessed as inhibition of bacterial growth incubated for 24 hrs by broth microdilution method. Format: functional.
In experiment [23] the test system is Staphylococcus aureus. As to the kind of experiment: Antibacterial activity against Staphylococcus aureus assessed as inhibition of bacterial growth incubated for 24 hrs by broth microdilution method. It counts as functional.
The test system of experiment [24] is Staphylococcus aureus. Nature of the experiment: Antibacterial activity against Staphylococcus aureus assessed as inhibition of bacterial growth by broth dilution method. It counts as functional.

By MIC is commonly meant the least concentration at which growth counts as inhibited. For `NC1CCCc2c1[nH]c1ccc(Cl)cc21` (configuration not stated), the minimal inhibitory concentration (MIC) in the experiment with Escherichia coli [1] stood at 37 µg/mL (≈ 168 µM).

As a reminder, the IC50 is the concentration needed to halve the response being measured. For the molecule `COc1cc2[nH]c3c4c(c(C)cc3c2cc1OC)OC(C)(C)C=C4`, the IC50 in the experiment with Staphylococcus aureus [2] was determined as 20.9 µM.

In general, MIC90 refers to the lowest concentration that inhibits either 90% of growth or 90% of the strains tested, depending on the study. Turning to `CC(C)=CCCC1(C)C=Cc2c(c(C)cc3c2[nH]c2cc(O)ccc23)O1` (configuration not stated), the MIC90 with Staphylococcus aureus [3] is 3.12 µg/mL (≈ 8.98 µM); in the experiment with Klebsiella pneumoniae [4], 3.12 µg/mL (≈ 8.98 µM); in the experiment with Escherichia coli [5], over 100 µg/mL; with Pseudomonas aeruginosa [6], over 100 µg/mL.

With `CC1(C)Oc2ccc3[nH]c4cc(O)c(C=O)cc4c3c2[C@@H](O)[C@H]1O`, the minimal inhibitory concentration (MIC) with Staphylococcus aureus [7], in the experiment with Staphylococcus aureus [8], in the experiment on Escherichia coli [9] and in the experiment with Salmonella typhimurium was 64 µg/mL (≈ 196 µM) in each case.

On to `O=C(CCn1c2c(c3ccccc31)CCCC2)N1C[C@H]2C[C@H](C1)c1cccc(=O)n1C2`, for which the minimum inhibitory concentration (MIC) with Escherichia coli [1] worked out at 42.1 µg/mL (≈ 101 µM).

As to `O=C(NN1C(=O)C(Cl)=C(Cl)C1=O)c1ccc(-n2c3c(c4ccccc42)CCCC3)cc1`, the minimum inhibitory concentration (MIC) in the experiment with Staphylococcus aureus [10], in the experiment with Bacillus subtilis [11], in the experiment with Priestia megaterium, in the experiment on Micrococcus luteus, in the experiment with Klebsiella pneumoniae [12] and in the experiment on Pseudomonas aeruginosa [13] was 25 µg/mL each time. Further, the MIC in the experiment on Escherichia coli [14] and with Candida albicans [15] was 25 µg/mL each time.

As for `COCn1c2c(c3cccc(C)c31)Cc1cocc1C2`, the minimum inhibitory concentration (MIC) in the experiment on Candida albicans [16], in the experiment on Candida tropicalis and in the experiment on Aspergillus fumigatus was 7.81 µg/mL (≈ 29.2 µM) in each case.

For `C/C(=N/Nc1ccc([N+](=O)[O-])cc1[N+](=O)[O-])C1CCCc2c1n(C)c1c([N+](=O)[O-])cc([N+](=O)[O-])cc21` (configuration not stated), the minimal inhibitory concentration (MIC) with Pasteurella multocida is 4.5 µg/mL (≈ 9.05 µM).

Consider `COCn1c2c(c3cc(F)ccc31)Cc1cocc1C2`, for which the minimal inhibitory concentration (MIC) in the experiment with Candida albicans [16], in the experiment on Candida tropicalis and in the experiment with Aspergillus fumigatus was 7.81 µg/mL (≈ 28.8 µM) each time.

For `Clc1ccc2[nH]c3c(c2c1)CCCC31CCCn2ccnc21` (configuration not stated), the MIC (in experiment [17]; with Mucor hiemalis; with Rhodotorula glutinis; in the experiment on Bacillus subtilis [18]; in experiment [19]; in the experiment with Staphylococcus aureus [20]) was 53.2 µM (≈ 16.6 µg/mL) in each case.

Take `O=C(NN1C(=O)c2ccccc2C1=O)c1ccc(-n2c3c(c4ccccc42)CCCC3)cc1`: the minimum inhibitory concentration (MIC) in the experiment on Staphylococcus aureus [10], in the experiment with Bacillus subtilis [11], in the experiment with Priestia megaterium, with Micrococcus luteus, in the experiment on Klebsiella pneumoniae [12] and with Pseudomonas aeruginosa [13] was 25 µg/mL in each case. For the same molecule, the minimal inhibitory concentration (MIC) with Escherichia coli [14] and with Candida albicans [15] was 25 µg/mL throughout.

For `COC(=O)c1cc(O)c2[nH]c3ccc4c(c3c2c1)C=CC(C)(C)O4`, the MIC with Staphylococcus aureus [7], in the experiment on Staphylococcus aureus [8], in the experiment with Escherichia coli [9] and in the experiment on Salmonella typhimurium was 64 µg/mL (≈ 198 µM) throughout.

Turning to `Cc1ccc2[nH]c3c(c2c1)CC/C(=C\c1ccc(Br)cc1)C3=O`, the zone of inhibition at 25 µg/mL (in [21]; with Proteus vulgaris; in the experiment with Escherichia coli [22]) was 15 mm in each case.

As to `COc1cc(C)c(CC=C(C)C)c2c1[nH]c1ccccc12`, the minimal inhibitory concentration (MIC) in the experiment on Vibrio cholerae, in the experiment on Shigella flexneri and in the experiment on Staphylococcus aureus [23] was 32 µg/mL (≈ 115 µM) in each case.

With `NCC1CCCc2c1[nH]c1ccc(Cl)cc21` (configuration not stated), in the experiment on Escherichia coli [1], the minimal inhibitory concentration (MIC) turned out to be 21.1 µg/mL (≈ 89.9 µM).

`CC(C)=CCc1c(O)ccc2[nH]c3cc(O)c(C=O)cc3c12`: the minimal inhibitory concentration (MIC) with Staphylococcus aureus [7], in the experiment on Staphylococcus aureus [8], with Escherichia coli [9] and in the experiment with Salmonella typhimurium was 64 µg/mL (≈ 217 µM) in each case.

Turning to `CC(C)=CCC[C@@]1(C)C=Cc2c(ccc3c2[nH]c2ccc(C=O)cc23)O1`, the 50% inhibitory concentration (IC50) in the experiment on Staphylococcus aureus [2] turned out to be 11.7 µM.

For the molecule `COc1cc2c3c([nH]c2cc1C)C(=O)C=C(C)C3=O`, the MIC in the experiment on Staphylococcus aureus [24] was determined as 50 µg/mL (≈ 196 µM).
